Common to all, as to assay: normalised response (% of control), CellTiter-Glo; higher = more viable cells (100 = DMSO, 0 = benzethonium chloride kill control)
What all share (conditions): incubation time: 72 h
On the technique in general: In ATP-based viability assays light output follows the ATP content of the culture.

In one assay the test system is DU-4475. Here is the method: (§1)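 DSRT, 72 h incubation, CellTox Green / CellTiter-Glo readout. Signal is normalised to DMSO and benzethonium chloride controls. Value is the normalised response at the highest dose.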
The subject of assay [1] is MDA-MB-453. Here is the method: as §1
The next assay deals with BT-549. Here is the method: as §1
Another assay relates to CAL-85-1. Here is the method: as §1
The next assay deals with Hs578T. Here is the method: as §1
The test system of the next assay is MDA-MB-231. The method, then:
as §1

The test system of a further assay is MDA-MB-468. The method, then:
as §1

The test system of a further assay is MFM-223. Here is the method: as §1
The test system of a further assay is HDQ-P1. The method, then: as §1
A further assay has as its system CAL-120. The method, then:
as §1

Assay [2] deals with MDA-MB-453. In a few lines:
(§2)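 Values are normalised signals, each belonging to one concentration of the series. Breast cancer cells (20 µl suspension) were seeded into 384-well plates with compound at 5 concentrations in 10-fold steps over a compound-specific 10,000-fold range and incubated 72 h. Readouts were CellTox Green fluorescence (485/520 nm), then CellTiter-Glo luminescence after 10 min at room temperature, with each plate set to 0.1 % DMSO as 100 and a positive kill control as 0.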
The source holds these as a separate data set.

For another assay, the system named is MDA-MB-436. In a few lines: as §2
In another assay the test system is SK-BR-3. In a few lines:
as §2

In a further assay the test system is CAL-51. In a few lines:
as §2

This note sets out measurements from the supplement of paper PMC4862054.

The structures appear in SMILES notation.

`CC(C)(C)c1cc(NC(=O)Nc2ccc(-c3cn4c(n3)sc3cc(OCCN5CCOCC5)ccc34)cc2)no1` [Quizartinib] (1000 nM): the normalised response in the assay on DU-4475 stood at 105%; in the assay on MDA-MB-453 [1], 97%; with BT-549, 91.7%; with CAL-85-1, 106%; in the assay with Hs578T it was 92.6%; in the assay with MDA-MB-231, 113%. For the same compound, the normalised response in the assay on MDA-MB-468 amounted to 114%; in the assay with MFM-223, 105%; in the assay with HDQ-P1, 103%; in the assay with CAL-120, 112%.

As to `CS(=O)(=O)OCCCCOS(C)(=O)=O` [Busulfan] (10000 nM), the normalised response is 115% in the assay on MDA-MB-453 [2], 101% with MDA-MB-436, 110% in the assay with SK-BR-3 and 109% with CAL-51.

Regarding `CS(=O)(=O)CCNCc1ccc(-c2ccc3ncnc(Nc4ccc(OCc5cccc(F)c5)c(Cl)c4)c3c2)o1` [Lapatinib] (1000 nM), the normalised response was 106% with DU-4475; 80.5% in the assay with MDA-MB-453 [1]; 105% with BT-549; 73.5% in the assay with CAL-85-1; 101% in the assay with Hs578T; 105% with MDA-MB-231. The normalised response in the assay on MDA-MB-468 came out at 83.6%; in the assay with MFM-223, 99.5%; with HDQ-P1 it was 69.5%; in the assay with CAL-120, 105%.

For `COC1=CC(c2cc3ccccc3[nH]2)=N/C1=C\c1[nH]c(C)cc1C` [Obatoclax] (10000 nM), the normalised response stood at 84% in the assay with DU-4475; 57.5% with MDA-MB-453 [1]; 29.3% in the assay on BT-549; 76.3% in the assay on CAL-85-1; 74.7% in the assay on Hs578T; 66.9% with MDA-MB-231. The normalised response was 79.3% with MDA-MB-468, 71.2% in the assay with MFM-223, 91.1% with HDQ-P1 and 92.5% with CAL-120.

As to `CC(=O)O[C@H]1C(=O)[C@@]2(C)[C@H]([C@H](OC(=O)c3ccccc3)[C@]3(O)C[C@H](OC(=O)[C@H](O)[C@@H](NC(=O)c4ccccc4)c4ccccc4)C(C)=C1C3(C)C)[C@]1(OC(C)=O)CO[C@@H]1C[C@@H]2O` [Paclitaxel] (100 nM), the normalised response is 57.5% in the assay on MDA-MB-453 [2], 28.1% in the assay with MDA-MB-436, 10.2% with SK-BR-3 and 29.3% in the assay with CAL-51.

As to `CCOc1cc2ncc(C#N)c(Nc3ccc(OCc4ccccn4)c(Cl)c3)c2cc1NC(=O)/C=C/CN(C)C` [Neratinib] (1000 nM), the normalised response with DU-4475 came out at 95.3%; in the assay on MDA-MB-453 [1] it was 63.7%; with BT-549, 56.1%; with CAL-85-1, 42.6%; in the assay on Hs578T, 72.3%; in the assay on MDA-MB-231, 74.2%. Moreover, the normalised response with MDA-MB-468 was 36.4%; with MFM-223, 62.8%; in the assay with HDQ-P1, 46.3%; with CAL-120 it was 68.4%.

With `Cn1cnc2c(F)c(Nc3ccc(Br)cc3F)c(C(=O)NOCCO)cc21` [MEK-162] (100 nM), the normalised response in the assay on MDA-MB-453 [2] was 104%; in the assay with MDA-MB-436, 100%; in the assay on SK-BR-3, 101%; in the assay on CAL-51, 104%.

On to `CC(=O)O[C@H]1C(=O)[C@@]2(C)[C@H]([C@H](OC(=O)c3ccccc3)[C@]3(O)C[C@H](OC(=O)[C@H](O)[C@@H](NC(=O)c4ccccc4)c4ccccc4)C(C)=C1C3(C)C)[C@]1(OC(C)=O)CO[C@@H]1C[C@@H]2O` [Paclitaxel] (1000 nM), for which the normalised response in the assay with DU-4475 amounted to 34.8%; in the assay on MDA-MB-453 [1], 51.5%; with BT-549 it was 12.1%; in the assay with CAL-85-1, 20.4%; with Hs578T, 9.73%; in the assay on MDA-MB-231 it was 25.3%. For the same compound, the normalised response came out at 23.9% with MDA-MB-468, 38.8% in the assay on MFM-223, 61.2% with HDQ-P1 and 48.9% in the assay on CAL-120.

Take `CN1CCN(c2ccc3nc(-c4c(N)c5c(F)cccc5[nH]c4=O)[nH]c3c2)CC1` [Dovitinib] (10000 nM): the normalised response in the assay on DU-4475 amounted to 99.9%; in the assay on MDA-MB-453 [1], 96.4%; with BT-549 it was 95.6%; with CAL-85-1, 95.9%; with Hs578T it was 95.8%; in the assay on MDA-MB-231, 94%. For the same compound, the normalised response in the assay with MDA-MB-468 worked out at 78.1%; in the assay with MFM-223 it was 77.6%; in the assay on HDQ-P1, 89.8%; in the assay on CAL-120, 89.4%.

Regarding `CC(C)C[C@H](NC(=O)[C@H](Cc1ccccc1)NC(=O)c1cnccn1)B(O)O` [Bortezomib] (1000 nM), the normalised response in the assay on DU-4475 was found to be 6.46%; with MDA-MB-453 [1], 11.5%; in the assay on BT-549, 2.23%; with CAL-85-1 it was 0.44%; with Hs578T, 0.04%; in the assay with MDA-MB-231, 0.08%. The normalised response with MDA-MB-468 was determined as 0.97%; in the assay with MFM-223 it was 2.91%; with HDQ-P1, 0.65%; in the assay with CAL-120 it was 7.39%.

On to `COc1c(C)cnc(Cn2cnc3c(Cl)nc(N)nc32)c1C` [BIIB021] (1000 nM), for which the normalised response in the assay with MDA-MB-453 [2] is 27.8%; with MDA-MB-436, 42.5%; with SK-BR-3, 37.8%; in the assay on CAL-51 it was 19%.

With `COc1ncc(-c2ccc3nccc(-c4ccnnc4)c3c2)cc1NS(=O)(=O)c1ccc(F)cc1F` (100 nM), the normalised response in the assay on MDA-MB-453 [2] came to 20.1%; in the assay with MDA-MB-436, 46.7%; in the assay on SK-BR-3 it was 23.6%; in the assay with CAL-51 it was 29.5%.

As to `C#Cc1cccc(Nc2ncnc3cc(OC)c(OCCCCCCC(=O)NO)cc23)c1` [CUDC-101] (10000 nM), the normalised response in the assay on DU-4475 was 5.82%; with MDA-MB-453 [1], 4.64%; in the assay on BT-549, 18%; in the assay on CAL-85-1, 1.02%; in the assay with Hs578T, 6.2%; with MDA-MB-231, 2.74%. Moreover, the normalised response with MDA-MB-468 came to 9.04%; in the assay with MFM-223, 26.4%; in the assay with HDQ-P1 it was 33.4%; with CAL-120, 38.6%.

For the compound `C[C@@H]1C=C2C(=O)O[C@@H]3CC[C@H](C1)[C@]23O` [Galiellalactone] (5000 nM), the normalised response in the assay with MDA-MB-453 [2] came out at 105%; with MDA-MB-436, 106%; with SK-BR-3 it was 102%; in the assay with CAL-51, 71.9%.

In the case of `CC(C)C[C@H](NC(=O)[C@H](Cc1ccccc1)NC(=O)c1cnccn1)B(O)O` [Bortezomib] (100 nM), the normalised response was determined as 29.7% with MDA-MB-453 [2], 2.39% in the assay with MDA-MB-436, 4.21% with SK-BR-3 and 1.1% with CAL-51.

`CCOc1cc2ncc(C#N)c(Nc3ccc(OCc4ccccn4)c(Cl)c3)c2cc1NC(=O)/C=C/CN(C)C` [Neratinib] (100 nM): the normalised response in the assay with MDA-MB-453 [2] was 68%; with MDA-MB-436, 95%; with SK-BR-3 it was 25%; with CAL-51, 112%.
